Experiments:
Test in all cases: FLIPR calcium assay, cells with promiscuous G protein transfected with bitter receptor cDNA
Assay type in all cases: cell-based
Settings in all cases: responsive if cellular response of >10% over baseline, Fluo4-AM
[1] = target: T1, T2R receptor SEQ ID NO: 6 (S6) (Homo sapiens, UniProt P59540)
T1 construct: expressed in transfected cells; host or cells: cells expressing a promiscuous G protein (e.g., G16g44)
T1 sequence (P59540 1-309): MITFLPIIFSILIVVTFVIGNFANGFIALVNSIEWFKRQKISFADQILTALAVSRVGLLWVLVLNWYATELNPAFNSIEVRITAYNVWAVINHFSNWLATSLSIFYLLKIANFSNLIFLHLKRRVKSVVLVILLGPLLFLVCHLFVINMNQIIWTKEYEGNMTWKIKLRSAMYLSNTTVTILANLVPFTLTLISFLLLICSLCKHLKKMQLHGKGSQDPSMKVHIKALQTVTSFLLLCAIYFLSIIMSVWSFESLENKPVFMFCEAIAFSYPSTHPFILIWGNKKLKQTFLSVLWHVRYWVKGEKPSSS
How it was run: (§1)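 Transfect G16g44-expressing cells, one T2R per well; incubate 28 h. Load Fluo4-AM 60 min, wash. Stimulate with bitter agonist, record Ca fluorescence on FLIPR. Hit = >10% over baseline.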

[2] = target: T2, T2R receptor SEQ ID NO: 4 (S4) (Homo sapiens, UniProt Q9NYV8)
T2 construct: expressed in transfected cells; host or cells: cells expressing a promiscuous G protein (e.g., G16g44)
T2 sequence (Q9NYV8 1-317): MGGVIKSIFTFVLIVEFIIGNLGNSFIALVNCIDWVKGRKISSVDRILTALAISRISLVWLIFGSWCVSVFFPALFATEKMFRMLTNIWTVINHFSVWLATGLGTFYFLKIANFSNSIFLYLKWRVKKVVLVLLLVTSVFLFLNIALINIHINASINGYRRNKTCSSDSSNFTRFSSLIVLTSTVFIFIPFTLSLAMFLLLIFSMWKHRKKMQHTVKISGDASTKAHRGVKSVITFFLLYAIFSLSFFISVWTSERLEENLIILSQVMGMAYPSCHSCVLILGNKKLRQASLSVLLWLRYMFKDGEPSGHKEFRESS
How it was run: as §1

[3] = target: T3, T2R receptor SEQ ID NO: 2 (S2) (Homo sapiens, UniProt Q9NYW2)
T3 construct: expressed in transfected cells; host or cells: cells expressing a promiscuous G protein (e.g., G16g44)
T3 sequence (Q9NYW2 1-309): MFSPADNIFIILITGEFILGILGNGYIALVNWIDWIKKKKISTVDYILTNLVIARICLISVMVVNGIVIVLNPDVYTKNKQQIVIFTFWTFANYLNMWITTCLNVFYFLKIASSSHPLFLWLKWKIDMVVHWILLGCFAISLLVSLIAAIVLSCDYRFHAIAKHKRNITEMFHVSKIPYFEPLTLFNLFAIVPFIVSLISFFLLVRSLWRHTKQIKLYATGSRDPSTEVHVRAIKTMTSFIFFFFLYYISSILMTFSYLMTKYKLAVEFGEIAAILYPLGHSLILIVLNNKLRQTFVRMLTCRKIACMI
How it was run: as §1

[4] = target: T4, T2R receptor SEQ ID NO: 3 (S3) (Homo sapiens, UniProt Q9NYW0, T156M)
T4 construct: expressed in transfected cells; host or cells: cells expressing a promiscuous G protein (e.g., G16g44)
T4 sequence (Q9NYW0 1-307 T156M): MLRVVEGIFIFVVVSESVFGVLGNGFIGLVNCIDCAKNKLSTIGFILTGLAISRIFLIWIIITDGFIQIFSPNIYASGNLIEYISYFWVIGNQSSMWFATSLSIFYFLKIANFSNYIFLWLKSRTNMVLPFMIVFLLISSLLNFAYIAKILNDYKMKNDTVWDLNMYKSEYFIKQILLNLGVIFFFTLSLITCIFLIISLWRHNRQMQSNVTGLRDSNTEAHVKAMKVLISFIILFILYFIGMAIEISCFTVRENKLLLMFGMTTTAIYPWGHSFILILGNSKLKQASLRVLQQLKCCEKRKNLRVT
How it was run: as §1

[5] = target: T5, T2R receptor SEQ ID NO: 5 (S5) (Homo sapiens, UniProt P59534)
T5 construct: expressed in transfected cells; host or cells: cells expressing a promiscuous G protein (e.g., G16g44)
T5 sequence (P59534 18-338): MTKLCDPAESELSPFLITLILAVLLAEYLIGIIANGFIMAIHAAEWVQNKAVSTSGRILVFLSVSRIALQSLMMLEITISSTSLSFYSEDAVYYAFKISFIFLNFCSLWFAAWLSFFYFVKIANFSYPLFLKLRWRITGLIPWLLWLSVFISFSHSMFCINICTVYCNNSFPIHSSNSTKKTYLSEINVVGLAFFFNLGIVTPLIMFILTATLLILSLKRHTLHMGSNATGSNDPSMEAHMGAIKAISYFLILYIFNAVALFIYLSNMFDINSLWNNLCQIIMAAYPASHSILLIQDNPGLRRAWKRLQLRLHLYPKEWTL
How it was run: as §1

[6] = target: T6, T2R receptor SEQ ID NO: 1 (S1) (Homo sapiens, UniProt Q9NYW7)
T6 construct: expressed in transfected cells; host or cells: cells expressing a promiscuous G protein (e.g., G16g44)
T6 sequence (Q9NYW7 1-299): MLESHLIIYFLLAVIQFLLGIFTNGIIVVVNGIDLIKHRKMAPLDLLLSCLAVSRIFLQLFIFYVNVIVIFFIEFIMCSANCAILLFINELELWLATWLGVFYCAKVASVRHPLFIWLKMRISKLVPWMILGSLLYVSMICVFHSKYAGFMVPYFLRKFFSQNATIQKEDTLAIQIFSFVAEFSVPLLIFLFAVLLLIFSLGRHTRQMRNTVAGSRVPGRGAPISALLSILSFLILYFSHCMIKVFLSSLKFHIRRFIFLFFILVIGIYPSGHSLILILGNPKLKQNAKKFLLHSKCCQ
How it was run: as §1

Structure (SMILES) | S6 positive response of T2R receptor to API [1] | S4 positive response of T2R receptor to API [2] | S2 positive response of T2R receptor to API [3] | S3 positive response of T2R receptor to API [4] | S5 positive response of T2R receptor to API [5] | S1 positive response of T2R receptor to API [6]
CN(C)CCOC(C)(c1ccccc1)c1ccccn1 (stereo not drawn) [Doxylamine] | + (a “+” to indicate whether a particular T2R receptor showed a positive response to a particular API) | + (a “+” to indicate whether a particular T2R receptor showed a positive response to a particular API) | + (a “+” to indicate whether a particular T2R receptor showed a positive response to a particular API) | + (a “+” to indicate whether a particular T2R receptor showed a positive response to a particular API) | + (a “+” to indicate whether a particular T2R receptor showed a positive response to a particular API) | + (a “+” to indicate whether a particular T2R receptor showed a positive response to a particular API)
CCN(CC)CCCC(C)Nc1ccnc2cc(Cl)ccc12 (stereo not drawn) [Chloroquine] | + (a “+” to indicate whether a particular T2R receptor showed a positive response to a particular API) | + (a “+” to indicate whether a particular T2R receptor showed a positive response to a particular API) | + (a “+” to indicate whether a particular T2R receptor showed a positive response to a particular API) | + (a “+” to indicate whether a particular T2R receptor showed a positive response to a particular API) | + (a “+” to indicate whether a particular T2R receptor showed a positive response to a particular API) | + (a “+” to indicate whether a particular T2R receptor showed a positive response to a particular API)
CN(C)CCC=C1c2ccccc2COc2ccccc21 [Doxepin] | + (a “+” to indicate whether a particular T2R receptor showed a positive response to a particular API) | + (a “+” to indicate whether a particular T2R receptor showed a positive response to a particular API) | + (a “+” to indicate whether a particular T2R receptor showed a positive response to a particular API) | + (a “+” to indicate whether a particular T2R receptor showed a positive response to a particular API) | + (a “+” to indicate whether a particular T2R receptor showed a positive response to a particular API) | + (a “+” to indicate whether a particular T2R receptor showed a positive response to a particular API)
O=C(O)COCCN1CCN(C(c2ccccc2)c2ccc(Cl)cc2)CC1 (stereo not drawn) [Cetirizine] | + (a “+” to indicate whether a particular T2R receptor showed a positive response to a particular API) | + (a “+” to indicate whether a particular T2R receptor showed a positive response to a particular API) | + (a “+” to indicate whether a particular T2R receptor showed a positive response to a particular API) | + (a “+” to indicate whether a particular T2R receptor showed a positive response to a particular API) | + (a “+” to indicate whether a particular T2R receptor showed a positive response to a particular API) | + (a “+” to indicate whether a particular T2R receptor showed a positive response to a particular API)
CN(C)CCOC(c1ccccc1)c1ccccc1 [Diphenhydramine] | + (a “+” to indicate whether a particular T2R receptor showed a positive response to a particular API) | + (a “+” to indicate whether a particular T2R receptor showed a positive response to a particular API) | + (a “+” to indicate whether a particular T2R receptor showed a positive response to a particular API) | + (a “+” to indicate whether a particular T2R receptor showed a positive response to a particular API) | + (a “+” to indicate whether a particular T2R receptor showed a positive response to a particular API) | + (a “+” to indicate whether a particular T2R receptor showed a positive response to a particular API)

Reference: US20250271426A1, “REDUCTION OF BITTER TASTE OF ACTIVE PHARMACEUTICAL INGREDIENTS AND RELATED ASSAYS AND SCREENING METHODS” (Firmenich Incorporated, priority 2022, published 2025)
